Among the test systems are NCI-H460 lung; HCT-15 colon; MOLT-4 leukemia; ACHN renal; 786-0 renal; UO-31 renal; SW-620 colon; COLO 205 colon; MDA-MB-435; OVCAR-5 ovarian; IGROV1 ovarian; HS 578T breast; HCT-116 colon; SF-268 CNS; BT-549 breast; SK-OV-3 ovarian; T-47D breast; SK-MEL-28 melanoma.
Common to all, as to assay: NCI tumour cell line growth inhibition, 48 h

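All cell lines were grown in 96-well plates and treated with compound for 48 hours. At the TGI there is no net growth.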 Bounds are passed on as bounds.

As to `O=C(N/N=C/c1ccc([N+](=O)[O-])cc1)Nc1ccc(Br)cc1`, the TGI in the assay on NCI-H460 lung, in the assay with HCT-15 colon, in the assay on MOLT-4 leukemia, in the assay on ACHN renal, in the assay with 786-0 renal and in the assay with UO-31 renal was greater than 100 µM in each case. Besides, the TGI in the assay with SW-620 colon, in the assay with COLO 205 colon, in the assay with MDA-MB-435, with OVCAR-5 ovarian, with IGROV1 ovarian and in the assay with HS 578T breast was greater than 100 µM in each case. Also, the TGI in the assay with HCT-116 colon, with SF-268 CNS, in the assay on BT-549 breast, in the assay with SK-OV-3 ovarian, with T-47D breast and in the assay on SK-MEL-28 melanoma was greater than 100 µM in each case.
As for `NC(=O)SCCC(N)C(=O)O` (stereo unspecified), the TGI in the assay with NCI-H460 lung, in the assay on HCT-15 colon, in the assay on MOLT-4 leukemia, in the assay with ACHN renal, with 786-0 renal and in the assay on UO-31 renal was greater than 100 µM each time. Besides, the TGI with SW-620 colon, in the assay with COLO 205 colon, in the assay with MDA-MB-435, in the assay with OVCAR-5 ovarian, in the assay with IGROV1 ovarian and with HS 578T breast was greater than 100 µM throughout. The TGI in the assay with HCT-116 colon, in the assay on SF-268 CNS, in the assay with BT-549 breast, in the assay on SK-OV-3 ovarian, in the assay with T-47D breast and with SK-MEL-28 melanoma was greater than 100 µM each time.
Consider `COC(=O)[C@H]1COC(=O)N1`, for which the TGI with NCI-H460 lung, in the assay on HCT-15 colon, in the assay on MOLT-4 leukemia, in the assay on ACHN renal, in the assay with 786-0 renal and in the assay on UO-31 renal was greater than 100 µM in each case. The TGI in the assay on SW-620 colon, in the assay on COLO 205 colon, in the assay with MDA-MB-435, in the assay with OVCAR-5 ovarian, with IGROV1 ovarian and with HS 578T breast was greater than 100 µM throughout. Besides, the TGI in the assay with HCT-116 colon, with SF-268 CNS, in the assay on BT-549 breast, in the assay on SK-OV-3 ovarian, in the assay on T-47D breast and in the assay with SK-MEL-28 melanoma was greater than 100 µM each time.
As to `Oc1c(Br)cc(/C=C/c2cccc(/C=C/c3cc(Br)c(O)c(Br)c3)n2)cc1Br`, the TGI was 11.3 µM with NCI-H460 lung; 26.3 µM with HCT-15 colon; 14.7 µM in the assay with MOLT-4 leukemia; 52.3 µM in the assay on ACHN renal; 28 µM with 786-0 renal; 28.4 µM with UO-31 renal. The TGI in the assay with SW-620 colon was determined as 50.6 µM; in the assay on COLO 205 colon, 32.1 µM; in the assay on MDA-MB-435 it was 46.5 µM; in the assay on OVCAR-5 ovarian, 32.3 µM; with IGROV1 ovarian, 27.7 µM; in the assay with HS 578T breast it was 66.9 µM. The TGI in the assay on HCT-116 colon is 21 µM; in the assay on SF-268 CNS it was 32.9 µM; with BT-549 breast, greater than 100 µM; in the assay on SK-OV-3 ovarian, 62.9 µM; in the assay with T-47D breast, 31.4 µM; in the assay on SK-MEL-28 melanoma, 58.6 µM.
As to `O=c1c(-c2ccccc2F)coc2cc(F)ccc12`, the TGI in the assay with NCI-H460 lung, with HCT-15 colon, in the assay with MOLT-4 leukemia, with ACHN renal, in the assay on 786-0 renal and with UO-31 renal was greater than 100 µM each time. The TGI in the assay with SW-620 colon, with COLO 205 colon, in the assay with MDA-MB-435, in the assay on OVCAR-5 ovarian, in the assay on IGROV1 ovarian and in the assay on HS 578T breast was greater than 100 µM in each case. Besides, the TGI in the assay on HCT-116 colon, with SF-268 CNS, with BT-549 breast, in the assay with SK-OV-3 ovarian, with T-47D breast and with SK-MEL-28 melanoma was greater than 100 µM in each case.
Consider `CCN(CC)Cc1ccc(C(=S)Nc2ccc(C)cc2)s1`, for which the TGI with NCI-H460 lung amounted to 30.8 µM; in the assay on HCT-15 colon it was 32.3 µM; with MOLT-4 leukemia it was 41.6 µM; in the assay on ACHN renal, 39 µM; in the assay on 786-0 renal it was 29.1 µM; in the assay with UO-31 renal, 28.9 µM. The TGI with SW-620 colon came out at 45.3 µM; in the assay on COLO 205 colon, 31.7 µM; in the assay on MDA-MB-435, 26.5 µM; in the assay with OVCAR-5 ovarian, 29.5 µM; in the assay with IGROV1 ovarian, 26.2 µM; in the assay on HS 578T breast, 16.7 µM. In addition, the TGI was found to be 28.7 µM in the assay with HCT-116 colon; 4.42 µM in the assay on SF-268 CNS; 40.2 µM with BT-549 breast; 31.1 µM in the assay with SK-OV-3 ovarian; 37.4 µM with T-47D breast; 30.5 µM in the assay on SK-MEL-28 melanoma.
On to `CSc1nc(C)c(CCOC(C)=O)c(Cl)n1`, for which the TGI in the assay with NCI-H460 lung, in the assay with HCT-15 colon, with MOLT-4 leukemia, with ACHN renal, with 786-0 renal and with UO-31 renal was greater than 100 µM throughout. In addition, the TGI with SW-620 colon, in the assay with COLO 205 colon, in the assay with MDA-MB-435, with OVCAR-5 ovarian, in the assay with IGROV1 ovarian and in the assay on HS 578T breast was greater than 100 µM throughout. Also, the TGI with HCT-116 colon, with SF-268 CNS, in the assay with BT-549 breast, in the assay on SK-OV-3 ovarian, in the assay with T-47D breast and in the assay with SK-MEL-28 melanoma was greater than 100 µM in each case.

Source of the values: PubChem BioAssay (NCI).
